# Measurements published in publication PMC8548355 (Medicinal Chemistry Research, 2021).
# Assays:
# S. aureus ATCC 29213 [1] = assay: Drug interaction of 22 with FDA-approved drugs, checkerboard method; format: cell-based, Staphylococcus aureus
# K. pneumoniae BAA 1705 = assay: MIC by broth microdilution against K. pneumoniae BAA 1705; format: cell-based; details: Klebsiella pneumoniae, BAA1705, read-out: MIC against K. pneumoniae BAA 1705
# S. aureus ATCC 29213 [2] = assay: MIC by broth microdilution against S. aureus ATCC 29213; format: cell-based, Staphylococcus aureus; details: for MIC: Staphylococcus aureus, ATCC29213, read-out: MIC against S. aureus ATCC 29213, broth microdilution, 37 °C, 16–18 h
# E. coli ATCC 25922 = assay: MIC by broth microdilution against E. coli ATCC 25922; format: cell-based; details: Escherichia coli, ATCC25922, read-out: MIC against E. coli ATCC 25922
# A. baumannii BAA 1605 = assay: MIC by broth microdilution against A. baumannii BAA 1605; format: cell-based; details: Acinetobacter baumannii, BAA1605, read-out: MIC against A. baumannii BAA 1605
Structure (SMILES),"MIC of drug in the presence of “22” “B” (S. aureus ATCC 29213 [1]; S. aureus ATCC 29213, checkerboard, in combination with 22)","MIC (S. aureus ATCC 29213 [1]; Staphylococcus aureus, ATCC29213, 24 h, read-out: MIC (drug alone))",MIC (K. pneumoniae BAA 1705),MIC (S. aureus ATCC 29213 [2]),MIC (E. coli ATCC 25922),MIC (A. baumannii BAA 1605),"MIC against S. aureus ATCC 29213 (S. aureus ATCC 29213 [2]; broth microdilution, 37 °C, 16–18 h)","Inference (drug interaction) (S. aureus ATCC 29213 [1]; combination of 22 with the drug, S. aureus ATCC 29213)"
CC(C)(O/N=C(\C(=O)N[C@@H]1C(=O)N2C(C(=O)[O-])=C(C[n+]3ccccc3)CS[C@H]12)c1csc(N)n1)C(=O)O [Ceftazidime],16 µg/mL,16 µg/mL,–,–,–,–,–,No interaction
"O=C(Nc1ccccc1F)c1cc(Cl)ccc1O [Compound 10, 5-Chloro-N-(2ʹ-fluorophenyl)-2-hydroxybenzamide]",–,–,> 64 µg/mL,4 µg/mL,> 64 µg/mL,> 64 µg/mL,–,–
"O=C(Nc1ccc(F)c(F)c1)c1ccccc1O [Compound 11, N-(3ʹ,4ʹ-difluorophenyl)-2-hydroxybenzamide]",–,–,> 64 µg/mL,–,> 64 µg/mL,> 64 µg/mL,–,–
"O=C(Nc1ccc(F)c(F)c1)c1cc(Cl)ccc1O [Compound 12, 5-Chloro-N-(3ʹ,4ʹ-difluorophenyl)-2-hydroxybenzamide]",–,–,> 64 µg/mL,–,> 64 µg/mL,> 64 µg/mL,0.5 µg/mL,–
"O=C(Nc1ccc(F)c(Cl)c1)c1ccccc1O [Compound 13, N-(3ʹ-chloro-4ʹ-fluorophenyl)-2-hydroxybenzamide]",–,–,> 64 µg/mL,4 µg/mL,> 64 µg/mL,> 64 µg/mL,–,–
"O=C(Nc1ccc(F)c(Cl)c1)c1cc(Cl)ccc1O [Compound 14, 5-Chloro-N-(3ʹ-chloro-4ʹ-fluorophenyl)-2-hydroxybenzamide]",–,–,–,0.5 µg/mL,–,–,–,–

# Continued, in another order:
"MIC of drug in the presence of “22” “B” (S. aureus ATCC 29213 [1]; S. aureus ATCC 29213, checkerboard, in combination with 22)","MIC (S. aureus ATCC 29213 [1]; Staphylococcus aureus, ATCC29213, 24 h, read-out: MIC (drug alone))",MIC (K. pneumoniae BAA 1705),MIC (S. aureus ATCC 29213 [2]),MIC (E. coli ATCC 25922),MIC (A. baumannii BAA 1605),"MIC against S. aureus ATCC 29213 (S. aureus ATCC 29213 [2]; broth microdilution, 37 °C, 16–18 h)",Structure (SMILES),"Inference (drug interaction) (S. aureus ATCC 29213 [1]; combination of 22 with the drug, S. aureus ATCC 29213)"
–,–,> 64 µg/mL,> 64 µg/mL,> 64 µg/mL,> 64 µg/mL,–,"O=C(Nc1ccccc1)c1ccccc1 [Compound 3, N-phenylbenzamide]",–
–,–,> 64 µg/mL,> 64 µg/mL,> 64 µg/mL,> 64 µg/mL,–,"O=C(Nc1ccccc1)c1cccc(Cl)c1 [Compound 4, N-(phenyl)-3-chlorobenzamide]",–
–,–,> 64 µg/mL,64 µg/mL,> 64 µg/mL,> 64 µg/mL,–,"O=C(Nc1ccccc1)c1ccccc1O [Compound 5, N-(phenyl)-2-hydroxybenzamide]",–
–,–,> 64 µg/mL,8 µg/mL,> 64 µg/mL,> 64 µg/mL,–,"O=C(Nc1ccccc1)c1cc(Cl)ccc1O [Compound 6, 5-Chloro-N-(phenyl)-2-hydroxy-benzamide]",–
–,–,> 64 µg/mL,–,> 64 µg/mL,> 64 µg/mL,–,"O=C(Nc1ccc(F)cc1)c1ccccc1O [Compound 7, N-(4ʹ-fluorophenyl)-2-hydroxybenzamide]",–
–,–,> 64 µg/mL,2 µg/mL,> 64 µg/mL,> 64 µg/mL,–,"O=C(Nc1ccc(F)cc1)c1cc(Cl)ccc1O [Compound 8, 5-Chloro-N-(4ʹ-fluorophenyl)-2-hydroxybenzamide]",–
–,–,> 64 µg/mL,–,> 64 µg/mL,> 64 µg/mL,–,"O=C(Nc1ccccc1F)c1ccccc1O [Compound 9, N-(2ʹ-fluorophenyl)-2-hydroxybenzamide]",–
